Measured values: US20210009673A1, “METHODS FOR REGULATING BREAST CANCERS” (priority 2018, published 2021)
No end group written: not given here.

Tests used:
[1] = test system: MMTV-PyMT mouse breast cancers; assay: breast cancer progression in MMTV-PyMT-PTN 1-40 bi-transgenic mice; format: in vivo
Text: The MMTV LTP promoter and human cDNA encoding PTN 1-40 (residue −32 to residue 40) was amplified using PCR from pcDNA3.1-Ptn (constructed by our laboratory). After restriction enzyme digestion, MMTV LTR and Ptn 1-40 cDNA were inserted into EcoR V, Not I and EcoR I site of pIRES-EGFP (BD clontech). The sequence of the final transgene construction (MMTV-PTN-IRES-EGFP) was verified by nucleotide sequencing. The transgene construction was freed of the bacterial sequences by digestion with EcoR V and Xho I, producing a 4.0-kb linear DNA fragment. The 4.0-kb linear DNA that was injected into the fertilized eggs of FVB mice consisted of the MMTV-LTR, PTN 1-40 cDNA, IRES (internal ribosomal entry site), EGFP cDNA, SV40 poly-adenylation sequences. Tail DNA from weaning mice derived from the transgene-injected eggs was analyzed by PCR. The mice were housed in animal facility of The Scripps Research Institute and were maintained according to NIH guidelines for the Care and Use of Laboratory Animals.
FVB/N-Tg(MMTV-PyVT)634Mul/J transgenic mice were purchased from Jackson laboratory. They develop spontaneous metastatic mammary carcinomas and have been described in before. […] Transgenic animals were genotyped using PCR analysis of genomic DNA obtained from tails. When possible, litter mates with both genotypes were used in the same experiment.
Mice were examined daily seeking mammary tumors by eye examination and finger palpation after 5 weeks of age. The tumors fully formed on the mammary glands were excised and weighed in 12-14 weeks old mice depending on the tumor size in bi-transgenic mice. Tumor length (L) and width (W) were measured 3 times a week using calipers. Tumor volume was estimated using the formula (L×W2)/2. Total wet tumor weight was weighed by scale when the tumors were excised from sacrificed mice.
The tumor tissue excised from euthanized animals was fixed in 10% buffered formalin and embedded in paraffin. The specimens were sectioned, stained with H&E, and Masson trichrome stain for collagen fibers.
Tumor tissue was fixed by 4% paraformaldehyde in phosphate-buffered saline (PBS). After PBS rinse, the tissues were cryoprotected with 30% sucrose in PBS at […] overnight, then infiltrated with a mixture of 1 parts 30% sucrose phosphate buffer to 1 part Histo Prep™ Frozen tissue embedding media (Fisher Scientific) for ½ hour at room temperature before infiltration with 100% Histo Prep™ and freezing. Cryosections ([…]) were cut and immunohistochemistry was performed using rat anti-mouse CD31 (PECAM-1. BD Pharmingen) antibodies. IMD (number of vessels/mm2) was obtained by counting CD31+ vessels in 10 random fields at ×200 magnification.
Reverse transcription was done using […] total RNA in the presence of 50 ng random hexamers using Ominscipt kit (Qiagen) following manufacturer's recommendations. Real time PCR was done using ICycler (BIORAD). The amplification conditions were: one cycle of 95° C.°, 3 min followed by 40 cycles of 95 C°, 30 sec and 60 C°, 15 sec. GAPDH was used as internal control. The fold changes relative to GAPDH was calculated using the formula: Fold Change=2 L (Ct Target1-CtTarget2)/2 L (Ct GAPDH1-CtGAPDH2) Where: Ct is the threshold of cycle number. Target is the gene measured. Number 1 and 2 represent different samples.

[2] = test system: MDA-MB-231 cell xenograft; conditions: ectopic expression; Zhang, Zhong et al. 1997; cited from earlier work
ALK = ALK activation in MDA-MB-231 cells stably transfected with dominant negative PTN (anti-ALK phosphotyrosine 1586/1604 Western blot); format: cell-based, human; conditions: cells expressing dominant negative PTN vs empty vector
Description: FIG. 18: FIG. 18 illustrates: that a dominant negative PTN blocks ALK activation. MDA-MB-231 cells were transfected with an empty vector or cDNA encoding a dominant negative PTN 1-40. Cell lysates were prepared and analyzed in Western blots probed with anti-phospho-ALK tyrosine 1586/1604 (left two lanes) or separately with anti-ALK antibodies (right two lanes). Arrows point full length ALK (200 kDa) and activated ALK phosphotyrosines 1586/1604.
To test whether ALK is activated through the PTN/RPTPβ/ζ signaling pathway in MDA-MB-231 cells, lysates from MDA-MB-231 cells, stably transfected with dominant negative PTN, were first analyzed in Western blots probed with anti-ALK and with anti-ALK phosphotyrosine 1586/1604 antibodies specific for activated ALK (Bai, Dieter et al. 1998, Mol Cell Biol 18(12): 6951-61). Anti-ALK phosphotyrosines 1586/1604 immunoreactive proteins were only identified in lysates from MDA-MB-231 empty vector cells, consistent with results above and supporting ALK is activated in cells with an activated PTN/RPTPβ/ζ signaling pathway.
The vector pcDNA3.1/PTN1-40 was constructed by inserting the cDNA fragment encoding residues −32 to 40 of human PTN protein into XbaI and BamHI of pcDNA3.1/myc-his/hygro vector (Invitrogen).

## dominant negative PTN: mutant PTN (residues 1-40) forming mixed disulfide linked heterodimers with wild-type PTN; expressed from cDNA or transgene (GKKEKPEKKVKKSDCGEWQWSVCVPTSGDCGLGTREGTRT; also: forms mixed disulfide linked heterodimers with wild-type PTN; UniProt P21246 33-72, looked up, fragment)
[1]; 13-week mice, 2% in MMTV-PyMT, p=0.017
  percentage area of adenoma/MIN: 12%
[1]; 13-week mice, 20% in MMTV-PyMT, p=0.045
  percentage area occupied by early carcinoma: 41%
[1]; 13-week mice, 78% in MMTV-PyMT, P=0.024
  percentage area occupied by later carcinoma: about 45%
[1]; MMTV-PyMT-PTN 1-40 bi-transgenic mouse breast cancers
  foci of scirrhous carcinoma: not seen
[1]; about 30 in MMTV-PyMT, P<0.05
  average intratumor microvessel density (IMD): about 18 blood vessels/mm2
[1]; compared with MMTV-PyMT mice
  tropoelastin and protocollagen mRNA levels (RT-PCR): not statistically different
[1]; compared with MMTV-PyMT-Ptn and MMTV-PyMT mice
  activated fibroblasts in breast cancers: marked reduction
[2]
  MDA-MB-231 cell xenograft growth in nude mice: prevented MDA-MB-231 cell xenograft growth
ALK
  anti-ALK phosphotyrosines 1586/1604 immunoreactive proteins: essentially non-identifiable
